# Reference: patent US4179337A, “Non-immunogenic polypeptides” (priority 1977, dated 1979)
# What was measured:
# [1] = tested on: rabbit antiserum after immunization with catalase; assay: Microtiter complement-fixation test; type: binding; conditions: initial and booster sera
# Protocol: (§1) Immunization - New Zealand, white adult female rabbits were immunized by the intravenous route with a 1.5 mg/ml. stock solution of beef liver catalase for a period of 4 weeks by which time it received a total of 55 mg. of catalase. Rabbits were bled by cardiac puncture 7 and 14 days after completion of the immunization schedule. Approximately 1 month later, rabbits were injected with 5 mg. of the appropriate antigen and bled by cardiac puncture 1 week after receiving the booster injection.
# (§2) Rabbit antisera obtained after initial or booster immunization were assayed in vitro for precipitating (1) and complement fixing activities (2,3). Each antiserum (undiluted, 1/10, 1/50) was set up in gel diffusion plates (1.0% Noble Agar in physiological saline with 1.0% azide added as preservative) against both catalase and PEG-HTA-catalase solutions (concentrations ranging from 1000γ/ml. to 5γ/ml). Plates were incubated at room temperature for 48 hours and at 4° C. for 3-4 days. Complement fixing activity of the heat inactivated, sheep red blood cell absorbed antisera was determined using the Microtiter Complement-fixation test (Cooke Engineering Co., Alexandria, Virginia). Antisera were run 1:1 and 1:10 dilutions against catalse and PEG-HTA-catalase dilutions ranging from 1000γ/ml. down to 15γ/ml. Plates were read for presence or absence of hemolysis following incubation at 37° C. for 30 minutes.
# [2] = tested on: rabbit antiserum after immunization with catalase; assay: Gel diffusion test for precipitating antibodies; type: binding; conditions: antiserum against native catalase, tested undiluted and 1/10
# Protocol: as §1, §2
# [3] = tested on: rats made diabetic utilizing alloxan injections; assay: PEG insulin rat assay, alloxan diabetic rats; type: in vivo; set-up: % Drop Over Control: concentration or dose not given beside the values
# insulin antiserum = assay: PEG-insulin immunoassay (radioimmunoassay); type: binding
# Protocol: PEG-HTA-Insulin was prepared in accordance with Example II and tested for antigenic activity by the method of […]
# [4] = Insulin activity (animal assay); conditions: in vivo
# test rabbits = assay: PEG-HTA-insulin assay, blood sugar levels in test rabbits (Glucostat method); type: in vivo, rabbit; conditions: after 3 hours, same amount of insulin injected
# Protocol: Preliminary insulin and PEG-HTA-insulin containing the same amount of insulin were injected into test rabbits and blood sugar levels measured by the "Glucostat" method (Worthington Biochemical Corporation, Freehold, N. J.).
# [5] = intravenous, 8 hrs (animals fed after 5 hrs)
substance,measurement,setting,value
"Hydrogen Peroxide: Hydrogen-Peroxide Oxidoreductase (1.11.1.6; ""Catalase"")-2-PEG-4-Hydroxy-1,3,5-Triazin-6-yl Conjugate [modified catalase]",complement-fixing activity,[1],negative
same,"precipitating antibodies, gel diffusion",[2],no evidence of any cross-reactions
insulin [Unmodified Insulin],Blood Glucose Level,"[3]; intramuscularly, 0 hrs (initial level)",410 mg/100 ml.
same,% Drop Over Control,"[3]; intramuscularly, 1 hr",32.9%
same,Blood Glucose Level,"[3]; intramuscularly, 1 hr",295 mg/100 ml.
same,Drop Over Initial Level,"[3]; intramuscularly, 1 hr",135 mg/100 ml
same,% Drop Over Control,"[3]; intramuscularly, 2 hrs",34.1%
same,Blood Glucose Level,"[3]; intramuscularly, 2 hrs",270 mg/100 ml.
same,Drop Over Initial Level,"[3]; intramuscularly, 2 hrs",140 mg/100 ml
same,% Drop Over Control,"[3]; intramuscularly, 4 hrs",29.2%
same,Blood Glucose Level,"[3]; intramuscularly, 4 hrs",290 mg/100 ml.
same,Drop Over Initial Level,"[3]; intramuscularly, 4 hrs",120 mg/100 ml
same,% Drop Over Control,"[3]; intramuscularly, 6 hrs",02.4%
same,Blood Glucose Level,"[3]; intramuscularly, 6 hrs",400 mg/100 ml.
same,Drop Over Initial Level,"[3]; intramuscularly, 6 hrs",10 mg/100 ml
same,Insulin Antibodies Activity (radioimmunoassay),insulin antiserum,127 μ units/ml.
same,Insulin Activity (animal assay),[4],137 μ units/ml.
same,Blood Glucose Level,test rabbits,20 % of normal
Hydrogen-peroxide: hydrogen-peroxide oxidoreductase [Unmodified catalase],complement-fixing activity,[1],positive
same,"precipitating antibodies, gel diffusion",[2],positive
"Insulin PEG-4-Hydroxy-1,3,5-Triazin-6-yl Conjugate [PEG HTA Insulin (pH 9.2)]",Blood Glucose Level,"[3]; intravenous, 0 hrs (initial level)",305 mg/100 ml.
same,% Drop Over Control,"[3]; intravenous, 2 hrs",76.2%
same,Blood Glucose Level,"[3]; intravenous, 2 hrs",72.5 mg/100 ml.
same,Drop Over Initial Level,"[3]; intravenous, 2 hrs",232 mg/100 ml
same,% Drop Over Control,"[3]; intravenous, 4 hrs",66.7%
same,Blood Glucose Level,"[3]; intravenous, 4 hrs",101.5 mg/100 ml.
same,Drop Over Initial Level,"[3]; intravenous, 4 hrs",203.5 mg/100 ml
same,% Drop Over Control,[3]; [5],24.6%
same,Blood Glucose Level,[3]; [5],230 mg/100 ml.
same,Drop Over Initial Level,[3]; [5],75 mg/100 ml
